Structures are written as SMILES. Bounds are passed on as bounds.

In this experiment the target is T1, human BRD4 bromodomain II (Homo sapiens, UniProt O60885).
T1 construct: human BRD4 bromodomain II [based on Genbank NM_058243, residues 349-460]; host or cells: E. coli
The experiment in a line: Bromodomain binding assay (AlphaScreen), BRD4 BDII. As to conditions: AlphaScreen assay, Table C2; read-out: BRD4 BDII IC50. The procedure: Bromodomain Binding Assay
The bromodomain binding assay utilizes AlphaScreen technology. Compounds compete with a biotinylated peptide ligand (from histone H4: aa 1-21, K5/K8/K12/K16Ac-biotin) for binding to a hexahistidine (His6)-tagged bromodomain. Peptide binding is detected by fluorescence signal after singlet oxygen energy transfer from peptide-bound AlphaScreen streptavidin-coated donor beads to His6-tagged bromodomain-bound nickel-chelate acceptor beads (PerkinElmer). Briefly, 8 μL 2.5× bromodomain (E. coli expressed, N-terminal His6-tagged human BRD4 bromodomain II [based on Genbank NM_058243, residues 349-460] or N-terminal His6-tagged human BRD4 bromodomain I [residues 44-170]) in reaction buffer (50 mM HEPES [pH 7.5], 100 mM NaCl, 0.05% CHAPS, 0.1% BSA, 1% DMSO) is added to wells of an assay plate (384-well low flange white, flat bottom, polystyrene microplate, Corning #3572; buffer only is added to some wells as a negative control). A compound concentration series (10 concentrations, 3-fold serial dilutions previously prepared in 100% DMSO, or 100% DMSO only negative control) is delivered to the assay plate with an Echo 550 acoustic liquid handler (Labcyte), followed by plate centrifugation and incubation for 30 minutes at room temperature. Then 4 μL 5× biotinylated peptide ligand is added, followed by plate centrifugation and gentle shaking for 30 minutes at room temperature to mix. After this incubation, 4 μL 5× donor beads are added, and the plate is centrifuged, followed by brief gentle shaking to mix. Finally, 4 μL 5× acceptor beads are added, and the plate is centrifuged, followed by gentle shaking for 60 minutes at room temperature in the dark. AlphaScreen signal (excitation/emission: 680 nm/520-620 nm) is detected with an EnSpire multimode plate reader (PerkinElmer). Percentage peptide binding is plotted as a function of concentration, and curve fitting is used to determine competitive compound binding ICsos.
On the technique in general: Bead proximity is the source of the signal in Alpha formats.

With `CC(=O)N1CCc2cc(-c3cccc(-c4cc(N5CCNCC5)no4)c3O)ccc21` [Example 31, 1-(5-(2-Hydroxy-3-(3-(piperazin-1-yl)isoxazol-5-yl)phenyl)indolin-1-yl)ethanone 2,2,2-trifluoroacetate], the IC50 (usually the midpoint of a concentration-inhibition curve) is more than 100 nM.
In the case of `CC(=O)Nc1ccc(-c2cccc(-c3cc(N4CCN(C(=O)c5ccccc5)CC4)no3)c2O)cc1` [Example 105, N-(3′-(3-(4-Benzoylpiperazin-1-yl)isoxazol-5-yl)-2′-hydroxy-[1,1′-biphenyl]-4-yl)acetamide], the IC50 was more than 100 nM.
Under `CC(=O)Nc1ccc(-c2cccc(-c3ccccc3)c2O)cc1` [Example 12, N-(2′-Hydroxy-[1,1′:3′,1″-terphenyl]-4-yl)acetamide] stands more than 100 nM; under `CC(=O)Nc1ccc(-c2cccc(-c3cc(N4CCNCC4)no3)c2O)cc1OC1CCCC1` [Example 89, N-(3-(Cyclopentyloxy)-2′-hydroxy-3′-(3-(piperazin-1-yl)isoxazol-5-yl)-[1,1′-biphenyl]-4-yl)acetamide 2,2,2-trifluoroacetate], 10 to 100 nM.
Under `CCc1cc(-c2cccc(-c3ccc(NC(C)=O)c(F)c3)c2O)ccc1NC(C)=O` [Example 88, N,N′-(3-Ethyl-3″-fluoro-2′-hydroxy-[1,1′:3′,1″-terphenyl]-4,4″-diyl)diacetamide] stands more than 100 nM.
With `CC(=O)Nc1ccc(-c2cccc(-c3ccc(C(F)(F)F)cc3)c2O)cc1F` [Example 83, N-(3-Fluoro-2′-hydroxy-4″-(trifluoromethyl)-[1,1′:3′,1″-terphenyl]-4-yl)acetamide] the figure was more than 100 nM.
Consider `CCc1cc(-c2cccc(-c3cc(N4CCNCC4)no3)c2O)ccc1NC(C)=O` [Example 22, N-(3-Ethyl-2′-hydroxy-3′-(3-(piperazin-1-yl)isoxazol-5-yl)-[1,1′-biphenyl]-4-yl)acetamide 2,2,2-trifluoroacetate], for which the IC50 was more than 100 nM.
`CC(=O)Nc1ccc(-c2cccc(-c3cc(N4CCN(S(C)(=O)=O)CC4)no3)c2O)cc1` [Example 143, N-(2′-hydroxy-3′-(3-(4-(methylsulfonyl)piperazin-1-yl)isoxazol-5-yl)-[1,1′-biphenyl]-4-yl)acetamide]: the IC50 is more than 100 nM.
For the compound `CC(=O)Nc1ccc(-c2cccc(-c3ccc4c(c3)CCN4C(C)=O)c2O)cc1F` [Example 47, N-(3′-(1-Acetylindolin-5-yl)-3-fluoro-2′-hydroxy-[1,1′-biphenyl]-4-yl)acetamide], the 50% inhibitory concentration (IC50) was more than 100 nM.
Under `CC(=O)Nc1ccc(-c2cccc(-c3ccc(Cl)cc3)c2O)cc1F` [Example 81, N-(4″-Chloro-3-fluoro-2′-hydroxy-[1,1′:3′,1″-terphenyl]-4-yl)acetamide] stands more than 100 nM.
Regarding `COc1cc(F)cc(-c2cccc(-c3ccc(NC(C)=O)c(F)c3)c2O)c1` [Example 146, N-(3,3″-difluoro-2′-hydroxy-5″-methoxy-[1,1′:3′,1″-terphenyl]-4-yl)acetamide], the IC50 is more than 100 nM.
Regarding `CC(=O)Nc1ccc(-c2cccc(-c3cccc(N4CCN[C@@H](C)C4)c3)c2O)cc1F` [Example 179, (S)-N-(3-fluoro-2′-hydroxy-3″-(3-methylpiperazin-1-yl)-[1,1′:3′,1″-terphenyl]-4-yl)acetamide], the IC50 was 10 to 100 nM.
Under `CC(=O)Nc1ccc(-c2cccc(-c3cc(F)cc(N4CCNCC4)c3)c2O)cc1F` [Example 178, N-(3,3″-difluoro-2′-hydroxy-5″-(piperazin-1-yl)-[1,1′:3′,1″-terphenyl]-4-yl)acetamide] stands 10 to 100 nM.
With `CC(=O)N(C)c1ccc(-c2cccc(-c3cc(N4CCNCC4)no3)c2O)cc1` [Example 9, N-(2′-Hydroxy-3′-(3-(piperazin-1-yl)isoxazol-5-yl)-[1,1′-biphenyl]-4-yl)-N-methylacetamide], the IC50 was more than 100 nM.
With `COc1cc(-c2cccc(-c3cc(F)c(N4CCCC4=O)c(F)c3)c2O)ccc1NC(C)=O` [Example 133, N-(3″,5″-Difluoro-2′-hydroxy-3-methoxy-4″-(2-oxopyrrolidin-1-yl)-[1,1′:3′,1″-terphenyl]-4-yl)acetamide] the figure was 10 to 100 nM.
With `CCC(=O)Nc1ccc(-c2cccc(-c3cc(N4CCNCC4)no3)c2O)cc1` [Example 116, N-(2′-Hydroxy-3′-(3-(piperazin-1-yl)isoxazol-5-yl)-[1,1′-biphenyl]-4-yl)propionamide 2,2,2-trifluoroacetate] the figure was more than 100 nM.
`CC(=O)Nc1ccc(-c2cccc(-c3cccc(N4CCCCC4)c3)c2O)cc1F` [Example 166, N-(3-fluoro-2′-hydroxy-3″-(piperidin-1-yl)-[1,1′:3′,1″-terphenyl]-4-yl)acetamide]: the IC50 was more than 100 nM.
Take `CC(=O)Nc1ccc(-c2cccc(-c3ccc4c(c3)CCCO4)c2O)cc1F` [Example 136, N-(3′-(chroman-6-yl)-3-fluoro-2′-hydroxy-[1,1′-biphenyl]-4-yl)acetamide]: the half-inhibitory concentration (IC50) is more than 100 nM.
Under `O=C1CCCN1c1ccc(-c2cccc(-c3ccncc3)c2O)cc1Cl` [Example 213, 1-(3-Chloro-2′-hydroxy-3′-(pyridin-4-yl)-[1,1′-biphenyl]-4-yl)pyrrolidin-2-one 2,2,2-trifluoroacetate] stands 10 to 100 nM.
`CC(=O)Nc1ccc(-c2cccc(-c3cccnc3)c2O)cc1F` [Example 63, N-(3-Fluoro-2′-hydroxy-3′-(pyridin-3-yl)-[1,1′-biphenyl]-4-yl)acetamide]: the IC50 fell in the range of 10 to 100 nM.
With `CC(=O)Nc1ccc(-c2cccc(-c3cccc(C4CCNCC4)c3)c2O)cc1F` [Example 210, N-(3-fluoro-2′-hydroxy-3″-(piperidin-4-yl)-[1,1′:3′,1″-terphenyl]-4-yl)acetamide] the figure was 1 to 10 nM; with `CC(=O)Nc1ccc(-c2cccc(-c3cc(N4CCN(C)CC4)no3)c2O)cc1F` [Example 150, N-(3-fluoro-2′-hydroxy-3′-(3-(4-methylpiperazin-1-yl)isoxazol-5-yl)-[1,1′-biphenyl]-4-yl)acetamide], 10 to 100 nM; with `CC(=O)Nc1ccc(-c2cccc(-c3cccc(N4C[C@@H]5CC[C@H]4CN5)c3)c2O)cc1F` [Example 183, N-(3″-((1S,4S)-2,5-diazabicyclo[2.2.2]octan-2-yl)-3-fluoro-2′-hydroxy-[1,1′:3′,1″-terphenyl]-4-yl)acetamide], 10 to 100 nM.
In the case of `CC(=O)Nc1ccc(-c2cccc(-c3ccc(N4CCOCC4)cc3)c2O)cc1F` [Example 94, N-(3-Fluoro-2′-hydroxy-4″-morpholino-[1,1′:3′,1″-terphenyl]-4-yl)acetamide], the IC50 was more than 100 nM.
On to `CC(=O)Nc1ccc(-c2cccc(-c3nnc(N4CCNCC4)[nH]3)c2O)cc1F` [Example 148, N-(3-fluoro-2′-hydroxy-3′-(5-(piperazin-1-yl)-4H-1,2,4-triazol-3-yl)-[1,1′-biphenyl]-4-yl)acetamide], for which the concentration for half-maximal inhibition (IC50) was more than 100 nM.
Consider `COc1cc(-c2cccc(-c3cc(F)c(NC(C)=O)c(F)c3)c2O)ccc1NC(C)=O` [Example 128, N,N′-(3,5-Difluoro-2′-hydroxy-3″-methoxy-[1,1′:3′,1″-terphenyl]-4,4″-diyl)diacetamide], for which the half-maximal inhibitory concentration (IC50) was 10 to 100 nM.
With `CC(=O)Nc1ccc(-c2cccc(-c3ccc4ncncc4c3)c2O)cc1F` [Example 142, N-(3-fluoro-2′-hydroxy-3′-(quinazolin-6-yl)-[1,1′-biphenyl]-4-yl)acetamide] the figure was 10 to 100 nM; with `CC(=O)Nc1c(Cl)cc(-c2cccc(-c3cc(N4CCNCC4)no3)c2O)cc1Cl` [Example 154, N-(3,5-dichloro-2′-hydroxy-3′-(3-(piperazin-1-yl)isoxazol-5-yl)-[1,1′-biphenyl]-4-yl)acetamide], 10 to 100 nM; with `CC(=O)Nc1ccc(-c2cccc(-c3cccc(-c4cn[nH]c4)c3)c2O)cc1F` [Example 246, N-(3-fluoro-2′-hydroxy-3″-(1H-pyrazol-4-yl)-[1,1′:3′,1″-terphenyl]-4-yl)acetamide], more than 100 nM.
Under `CC(=O)Nc1ccc(-c2cccc(-c3ccc(Cl)c(N4CCNCC4)c3)c2O)cc1F` [Example 241, N-(4″-chloro-3-fluoro-2′-hydroxy-3″-(piperazin-1-yl)-[1,1′:3′,1″-terphenyl]-4-yl)acetamide] stands 1 to 10 nM; under `CC(=O)Nc1c(F)cc(-c2cccc(-c3cc(N4CCNCC4)no3)c2O)cc1Cl` [Example 126, N-(3-Chloro-5-fluoro-2′-hydroxy-3′-(3-(piperazin-1-yl)isoxazol-5-yl)-[1,1′-biphenyl]-4-yl)acetamide 2,2,2-trifluoroacetate], 10 to 100 nM; under `CC(=O)Nc1ccc(-c2cccc(-c3cc(N4CCNCC4)no3)c2O)cc1OC(C)C` [Example 20, N-(2′-Hydroxy-3-isopropoxy-3′-(3-(piperazin-1-yl)isoxazol-5-yl)-[1,1′-biphenyl]-4-yl)acetamide], 10 to 100 nM.

Source of the values: patent US20250179059A1 (The Regents of the University of California, priority 2021, published 2025).
